# Columns and labels:
# rape = experiment: Test B preemergence/postemergence greenhouse plant response rating 0 to 10; type: in vivo, Brassica napus; conditions: for Plant response rating, Rape: 0 to 10 scale
# Method in brief: (§1)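 Both application timings were run together: seeds got compound preemergence, and established seedlings (two to eighteen cm) got it postemergence. Non-phytotoxic solvent carried the chemical. Ratings are visual, versus controls, at twelve to sixteen days.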
# chickweed = experiment: as above; type: in vivo, Stellaria media; conditions: PREEMERGENCE
# Method in brief: as §1
# downy brome = experiment: Test C preemergence/postemergence greenhouse plant response rating 0 to 100; type: in vivo, Bromus tectorum; conditions: for Plant response rating Downy Brome: 0 to 100 scale
# Method in brief: (§2)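 Compounds in non-phytotoxic solvent went onto sandy loam before emergence (seeded one day earlier) or onto plants at the one-to-four leaf stage. Duck salad was treated via flood water (~2.5 cm, maintained) over silt loam.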
# wild buckwheat = experiment: Test B preemergence/postemergence greenhouse plant response rating 0 to 10; type: in vivo, Polygonum convolvulus; conditions: for Plant response rating, Wild buckwheat: 0 to 10 scale
# Method in brief: as §1
# sugar beet = experiment: Test C preemergence/postemergence greenhouse plant response rating 0 to 100; type: in vivo, Beta vulgaris; conditions: for Plant response rating, Sugar beet: 0 to 100 scale
# Method in brief: as §2
# crabgrass = experiment: as above; type: in vivo, Digitaria sanguinalis; conditions: for Plant response rating, Crabgrass: 0 to 100 scale
# Method in brief: as §2
# bedstraw = experiment: as above; type: in vivo, Galium aparine; conditions: for Plant response rating, Bedstraw: 0 to 100 scale
# Method in brief: as §2
# umbrella sedge = experiment: Test C flood test plant response rating 0 to 100; type: in vivo, Cyperus difformis; conditions: for Plant response rating Umbrella sedge: flood test species listed under POSTEMERGENCE, 0 to 100 scale
# Method in brief: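 Compounds in non-phytotoxic solvent applied preemergence to sandy loam one day after planting, postemergence at the 1–4 leaf stage, or to ~2.5 cm floodwater over silt loam.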
# wild oat = experiment: Test C preemergence/postemergence greenhouse plant response rating 0 to 100; type: in vivo, Avena fatua; conditions: for Plant response rating, Wild oat: 0 to 100 scale
# Method in brief: as §2
# ryegrass = experiment: as above; type: in vivo, Lolium multiflorum; conditions: for Plant response rating Ryegrass: 0 to 100 scale
# Method in brief: as §2
# barnyardgrass = experiment: Test B preemergence/postemergence greenhouse plant response rating 0 to 10; type: in vivo, Echinochloa crus-galli; conditions: for Plant response rating, Barnyardgrass: 0 to 10 scale
# Method in brief: as §1
# corn = experiment: Test C preemergence/postemergence greenhouse plant response rating 0 to 100; type: in vivo, Zea mays; conditions: for Plant response rating, Corn: 0 to 100 scale
# Method in brief: as §2
compound,measurement,setting,value
C#CC(C)Oc1cc(-c2nn3c(c2Br)CCCC3)c(F)cc1Cl (stereo not drawn) [Compound 66],"Plant response rating, Rape","rape; POSTEMERGENCE, Rate 50 g/ha",10
same,"Plant response rating, Rape","rape; PREEMERGENCE, Rate 50 g/ha",1
same,"Plant response rating (0 to 10 scale), Rape","rape; PREEMERGENCE, Rate 200 g/ha",5
same,"Plant response rating, Rape","rape; Rate 200 g/ha, POSTEMERGENCE",10
same,"Plant response rating, Chickweed","chickweed; Rate 50 g/ha, 0 to 10 scale",4
same,"Plant response rating (0 to 10 scale), Chickweed",chickweed; Rate 200 g/ha,5
same,Plant response rating Downy Brome,"downy brome; POSTEMERGENCE, 62 g/ha",60
same,Plant response rating Downy Brome,"downy brome; POSTEMERGENCE, 250 g/ha",80
same,"Plant response rating (0 to 100), Downy Brome","downy brome; POSTEMERGENCE, Rate 4 g/ha",20
same,Plant response rating Downy Brome,"downy brome; PREEMERGENCE, 62 g/ha",30
same,Plant response rating Downy Brome,"downy brome; PREEMERGENCE, 250 g/ha",70
same,"Plant response rating (0 to 100), Downy Brome","downy brome; PREEMERGENCE, Rate 4 g/ha",0
same,"Plant response rating (0 to 100), Downy Brome","downy brome; Rate 16 g/ha, POSTEMERGENCE",40
same,"Plant response rating (0 to 100), Downy Brome","downy brome; Rate 16 g/ha, PREEMERGENCE",0
same,"Plant response rating, Wild buckwheat","wild buckwheat; POSTEMERGENCE, Rate 50 g/ha",10
same,"Plant response rating, Wild buckwheat","wild buckwheat; PREEMERGENCE, Rate 50 g/ha",4
same,"Plant response rating (0 to 10 scale), Wild buckwheat","wild buckwheat; PREEMERGENCE, Rate 200 g/ha",10
same,"Plant response rating, Wild buckwheat","wild buckwheat; Rate 200 g/ha, POSTEMERGENCE",10
same,"Plant response rating, Sugar beet","sugar beet; POSTEMERGENCE, 62 g/ha",100
same,"Plant response rating, Sugar beet","sugar beet; POSTEMERGENCE, 250 g/ha",100
same,"Plant response rating (0 to 100), Sugar beet","sugar beet; POSTEMERGENCE, Rate 4 g/ha",80
same,"Plant response rating, Sugar beet","sugar beet; PREEMERGENCE, 250 g/ha",100
same,"Plant response rating (0 to 100), Sugar beet","sugar beet; PREEMERGENCE, Rate 4 g/ha",0
same,"Plant response rating (0 to 100), Sugar beet","sugar beet; Rate 16 g/ha, POSTEMERGENCE",100
same,"Plant response rating (0 to 100), Sugar beet","sugar beet; Rate 16 g/ha, PREEMERGENCE",50
same,"Plant response rating, Crabgrass","crabgrass; POSTEMERGENCE, 62 g/ha",40
same,"Plant response rating, Crabgrass","crabgrass; POSTEMERGENCE, 250 g/ha",50
same,"Plant response rating (0 to 100), Crabgrass","crabgrass; POSTEMERGENCE, Rate 4 g/ha",10
same,"Plant response rating, Crabgrass","crabgrass; PREEMERGENCE, 62 g/ha",50
same,"Plant response rating, Crabgrass","crabgrass; PREEMERGENCE, 250 g/ha",100
same,"Plant response rating (0 to 100), Crabgrass","crabgrass; PREEMERGENCE, Rate 4 g/ha",0
same,"Plant response rating (0 to 100), Crabgrass","crabgrass; Rate 16 g/ha, POSTEMERGENCE",20
same,"Plant response rating (0 to 100), Crabgrass","crabgrass; Rate 16 g/ha, PREEMERGENCE",0
same,"Plant response rating, Bedstraw","bedstraw; POSTEMERGENCE, 62 g/ha",100
same,"Plant response rating, Bedstraw","bedstraw; POSTEMERGENCE, 250 g/ha",100
same,"Plant response rating (0 to 100), Bedstraw","bedstraw; POSTEMERGENCE, Rate 4 g/ha",60
same,"Plant response rating, Bedstraw","bedstraw; PREEMERGENCE, 62 g/ha",80
same,"Plant response rating, Bedstraw","bedstraw; PREEMERGENCE, 250 g/ha",90
same,"Plant response rating (0 to 100), Bedstraw","bedstraw; PREEMERGENCE, Rate 4 g/ha",0
same,"Plant response rating (0 to 100), Bedstraw","bedstraw; Rate 16 g/ha, POSTEMERGENCE",85
same,"Plant response rating (0 to 100), Bedstraw","bedstraw; Rate 16 g/ha, PREEMERGENCE",20
same,"Plant response rating (0 to 100), Umbrella sedge","umbrella sedge; POSTEMERGENCE section, flood test, Rate 4 g/ha",0
same,"Plant response rating (0 to 100), Umbrella sedge","umbrella sedge; Rate 16 g/ha, under POSTEMERGENCE head (flood test species)",0
same,Plant response rating Umbrella sedge,umbrella sedge; 62 g/ha,0
same,Plant response rating Umbrella sedge,umbrella sedge; 250 g/ha,80
same,"Plant response rating, Wild oat","wild oat; POSTEMERGENCE, 62 g/ha",50
same,"Plant response rating, Wild oat","wild oat; POSTEMERGENCE, 250 g/ha",60
same,"Plant response rating (0 to 100), Wild oat","wild oat; POSTEMERGENCE, Rate 4 g/ha",10
same,"Plant response rating, Wild oat","wild oat; PREEMERGENCE, 250 g/ha",30
same,"Plant response rating (0 to 100), Wild oat","wild oat; PREEMERGENCE, Rate 4 g/ha",0
same,"Plant response rating (0 to 100), Wild oat","wild oat; Rate 16 g/ha, POSTEMERGENCE",20
same,"Plant response rating (0 to 100), Wild oat","wild oat; Rate 16 g/ha, PREEMERGENCE",0
same,Plant response rating Ryegrass,"ryegrass; POSTEMERGENCE, 62 g/ha",50
same,Plant response rating Ryegrass,"ryegrass; POSTEMERGENCE, 250 g/ha",75
same,"Plant response rating (0 to 100), Ryegrass","ryegrass; POSTEMERGENCE, Rate 4 g/ha",10
same,Plant response rating Ryegrass,"ryegrass; PREEMERGENCE, 62 g/ha",50
same,Plant response rating Ryegrass,"ryegrass; PREEMERGENCE, 250 g/ha",70
same,"Plant response rating (0 to 100), Ryegrass","ryegrass; PREEMERGENCE, Rate 4 g/ha",0
same,"Plant response rating (0 to 100), Ryegrass","ryegrass; Rate 16 g/ha, POSTEMERGENCE",30
same,"Plant response rating (0 to 100), Ryegrass","ryegrass; Rate 16 g/ha, PREEMERGENCE",20
same,"Plant response rating, Barnyardgrass","barnyardgrass; POSTEMERGENCE, Rate 50 g/ha",5
same,"Plant response rating, Barnyardgrass","barnyardgrass; PREEMERGENCE, Rate 50 g/ha",0
same,"Plant response rating (0 to 10 scale), Barnyardgrass","barnyardgrass; PREEMERGENCE, Rate 200 g/ha",7
same,"Plant response rating, Barnyardgrass","barnyardgrass; Rate 200 g/ha, POSTEMERGENCE",9
same,"Plant response rating, Corn","corn; POSTEMERGENCE, 62 g/ha",40
same,"Plant response rating, Corn","corn; POSTEMERGENCE, 250 g/ha",60
same,"Plant response rating (0 to 100), Corn","corn; POSTEMERGENCE, Rate 4 g/ha",30
same,"Plant response rating, Corn","corn; PREEMERGENCE, 62 g/ha",0
same,"Plant response rating, Corn","corn; PREEMERGENCE, 250 g/ha",60
same,"Plant response rating (0 to 100), Corn","corn; PREEMERGENCE, Rate 4 g/ha",0
same,"Plant response rating (0 to 100), Corn","corn; Rate 16 g/ha, POSTEMERGENCE",30
same,"Plant response rating (0 to 100), Corn","corn; Rate 16 g/ha, PREEMERGENCE",0
